Test results as given in patent publication US20260184710A1, “CASITAS B-LINEAGE LYMPHOMA PROTOONCOGENE B (CBL-B) DEGRADING COMPOUNDS AND ASSOCIATED METHODS OF USE” (Arvinas Operations, Inc., priority 2022, published 2026).

Key:
[1] = target: T1, Cbl-b (Homo sapiens, UniProt Q13191); test: Cbl-b Degradation Method B (Nano-Glo HiBiT lytic detection); type: cell-based; settings: Cbl-b-HiBit KI Jurkat Cells, incubated at least 6-24 hours; for DC50: half maximal degradation, read-out: Cbl-b Degredation Method B IC50; for Dmax / Cbl-b Degredation Method B Dmax (%): maximum degradation observed; for Dmax: read-out: Cbl-b Degredation Method B Dmax (%)
T1 construct: Cbl-b-HiBit KI Jurkat Cells were purchased from Promega; host or cells: Cbl-b-HiBiT knock-in Jurkat cells
Outline: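 Cbl-b-HiBiT knock-in Jurkat cells (20,000/well) were treated after ~24 h plating with an 11-point 1:3 series for 6-24 h at 37° C. Remaining Cbl-b measured by Nano-Glo HiBiT lytic luminescence. DC50 and Dmax expressed as % of control.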

[2] = target: T1, Cbl-b; test: Cbl-b Degradation Method A (FACS, anti-Cbl-b antibody staining); type: cell-based; settings: Cbl-b-HiBit KI Jurkat Cells, incubated at least 20 hours; for DC50: half maximal degradation, read-out: Cbl-b Degredation Method A IC50; for Dmax: Jurkat, maximum degradation observed, read-out: Cbl-b Degredation Method A Dmax (%)
Outline: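 Cbl-b-HiBit KI Jurkat cells treated with compound for at least 20 h at 37 °C, then fixed, permeabilized and stained with anti-Cbl-b antibody plus anti-rabbit AF488 secondary. Cbl-b levels read by FACS; DC50 and Dmax (percent of control) derived.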

T1 sequence (Q13191 whole entry): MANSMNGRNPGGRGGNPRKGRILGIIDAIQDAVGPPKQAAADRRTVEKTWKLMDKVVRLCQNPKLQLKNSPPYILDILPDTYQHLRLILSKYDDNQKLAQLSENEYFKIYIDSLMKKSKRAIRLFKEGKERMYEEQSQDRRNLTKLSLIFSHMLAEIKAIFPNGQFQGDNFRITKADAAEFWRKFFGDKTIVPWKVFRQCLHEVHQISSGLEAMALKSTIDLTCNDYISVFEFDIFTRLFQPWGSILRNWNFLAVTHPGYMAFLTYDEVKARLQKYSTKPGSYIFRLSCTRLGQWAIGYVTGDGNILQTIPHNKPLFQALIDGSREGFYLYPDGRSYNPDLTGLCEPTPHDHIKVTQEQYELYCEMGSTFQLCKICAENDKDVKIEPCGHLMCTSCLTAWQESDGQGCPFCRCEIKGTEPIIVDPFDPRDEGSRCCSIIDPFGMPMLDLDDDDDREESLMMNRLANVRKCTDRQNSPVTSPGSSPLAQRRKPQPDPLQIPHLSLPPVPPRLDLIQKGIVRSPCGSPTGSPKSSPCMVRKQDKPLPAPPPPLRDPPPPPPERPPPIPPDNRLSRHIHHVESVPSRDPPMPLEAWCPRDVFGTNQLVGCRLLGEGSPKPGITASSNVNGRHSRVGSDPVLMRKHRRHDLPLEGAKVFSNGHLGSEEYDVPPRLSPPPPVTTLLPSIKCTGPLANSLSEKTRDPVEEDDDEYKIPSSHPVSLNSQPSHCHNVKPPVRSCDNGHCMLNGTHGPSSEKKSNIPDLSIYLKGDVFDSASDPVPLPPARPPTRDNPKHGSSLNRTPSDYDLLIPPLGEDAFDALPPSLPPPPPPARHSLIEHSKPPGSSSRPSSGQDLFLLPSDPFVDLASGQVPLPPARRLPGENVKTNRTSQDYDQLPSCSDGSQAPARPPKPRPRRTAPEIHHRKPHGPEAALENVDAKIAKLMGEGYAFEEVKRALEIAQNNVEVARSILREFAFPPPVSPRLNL

DC50 [1] [nM]	Dmax [1] [%]	DC50 [2] [nM]	Dmax [2] [%]	Cbl-b Degredation Method B Dmax (%) [1]	SMILES
< 5	> 70	< 5	> 70		Cn1cnnc1CC1(c2cccc(N3Cc4c(cc(CN5CCC[C@H](CN6CCN(C[C@H]7CC[C@@H](OC8CCN(c9ccc%10c(c9F)CN(C9CCC(=O)NC9=O)C%10=O)CC8)CC7)CC6)C5)cc4C(F)(F)F)C3=O)c2)CC1 (stereo partly drawn) [Example 162, 3-[4-fluoro-1-oxo-5-(4-{[(1r,4r)-4-[(4-{[(3S)-1-{[2-(3-{1-[(4-methyl-4H-1,2,4-triazol-3-yl)methyl]cyclopropyl}phenyl)-3-oxo-7-(trifluoromethyl)-2,3-dihydro-1H-isoindol-5-yl]methyl}piperidin-3-yl]methyl}piperazin-1-yl)methyl]cyclohexyl]oxy}piperidin-1-yl)-2,3-dihydro-1H-isoindol-2-yl]piperidine-2,6-dione]
> 500		> 500	< 35		C[C@H]1C[C@@H](CN2CCN(c3cccc4c3C(=O)N(C3CCC(=O)NC3=O)C4=O)CC2)CN(Cc2cc3c(c(C(F)(F)F)c2)CN(c2cccc(C4(Cc5nncn5C)COC4)c2)C3=O)C1 (stereo partly drawn) [Example 90, 2-(2,6-dioxopiperidin-3-yl)-4-(4-{[(3R,5S)-5-methyl-1-{[2-(3-{3-[(4-methyl-4H-1,2,4-triazol-3-yl)methyl]oxetan-3-yl}phenyl)-3-oxo-7-(trifluoromethyl)-2,3-dihydro-1H-isoindol-5-yl]methyl}piperidin-3-yl]methyl}piperazin-1-yl)-2,3-dihydro-1H-isoindole-1,3-dione]
< 5	35 to 70	< 5	> 70		COc1c(N2CCC(O[C@H]3CC[C@H](CN4CCN(Cc5cc6c(c(C(F)(F)F)c5)CN(c5cccc(C7(Cc8nncn8C)COC7)c5)C6=O)CC4)CC3)CC2)ccc2c1CN(C1CCC(=O)NC1=O)C2=O (stereo partly shown) [Example 193, 3-[4-methoxy-1-oxo-5-(4-{[(1r,4r)-4-[(4-{[2-(3-{3-[(4-methyl-4H-1,2,4-triazol-3-yl)methyl]oxetan-3-yl}phenyl)-3-oxo-7-(trifluoromethyl)-2,3-dihydro-1H-isoindol-5-yl]methyl}piperazin-1-yl)methyl]cyclohexyl]oxy}piperidin-1-yl)-2,3-dihydro-1H-isoindol-2-yl]piperidine-2,6-dione]
> 500		> 500			Cn1cnnc1CC1(c2cccc(N3Cc4c(cc(N5CC6(CCN(c7ccc8c(c7)C(=O)N(C7CCC(=O)NC7=O)C8=O)C6)C5)cc4C(F)(F)F)C3=O)c2)COC1 (stereo not shown) [Example 126, 2-(2,6-dioxopiperidin-3-yl)-5-{2-[2-(3-{3-[(4-methyl-4H-1,2,4-triazol-3-yl)methyl]oxetan-3-yl}phenyl)-3-oxo-7-(trifluoromethyl)-2,3-dihydro-1H-isoindol-5-yl]-2,6-diazaspiro[3.4]octan-6-yl}-2,3-dihydro-1H-isoindole-1,3-dione]
< 5	< 35	5 to 50	35 to 70		CC1c2cc(N3CCC(CN4CCC5(CC4)CN(c4cc6c(c(C(F)(F)F)c4)CN(c4cccc(C7(Cc8nncn8C)COC7)c4)C6=O)C5)CC3)ccc2C(=O)N1C1CCC(=O)NC1=O (stereo not shown) [Example 138, 3-{3-methyl-5-[4-({2-[2-(3-{3-[(4-methyl-4H-1,2,4-triazol-3-yl)methyl]oxetan-3-yl}phenyl)-3-oxo-7-(trifluoromethyl)-2,3-dihydro-1H-isoindol-5-yl]-2,7-diazaspiro[3.5]nonan-7-yl}methyl)piperidin-1-yl]-1-oxo-2,3-dihydro-1H-isoindol-2-yl}piperidine-2,6-dione]
< 5	35 to 70	5 to 50	35 to 70		CC1CN(C[C@H]2CC[C@H](OC3CCN(c4ccc5c(n4)C(C)N(C4CCC(=O)NC4=O)C5=O)CC3)CC2)CCN1Cc1cc2c(c(C(F)(F)F)c1)CN(c1cccc([C@]3(Cc4nncn4C)C[C@@H](C#N)C3)c1)C2=O (stereo partly shown) [Example 208, (1r,3r)-3-(3-{6-[(2-methyl-4-{[(1r,4r)-4-({1-[6-(2,6-dioxopiperidin-3-yl)-7-methyl-5-oxo-5H,6H,7H-pyrrolo[3,4-b]pyridin-2-yl]piperidin-4-yl}oxy)cyclohexyl]methyl}piperazin-1-yl)methyl]-1-oxo-4-(trifluoromethyl)-2,3-dihydro-1H-isoindol-2-yl}phenyl)-3-[(4-methyl-4H-1,2,4-triazol-3-yl)methyl]cyclobutane-1-carbonitrile]
> 500		50 to 500	< 35		Cn1cnnc1CC1(c2cccc(N3Cc4c(cc(N5CCC(CC6CN(c7ccc8c(c7)C(=O)N(C7CCC(=O)NC7=O)C8=O)C6)CC5)cc4C(F)(F)F)C3=O)c2)COC1 (stereo not shown) [Example 134, 2-(2,6-dioxopiperidin-3-yl)-5-[3-({1-[2-(3-{3-[(4-methyl-4H-1,2,4-triazol-3-yl)methyl]oxetan-3-yl}phenyl)-3-oxo-7-(trifluoromethyl)-2,3-dihydro-1H-isoindol-5-yl]piperidin-4-yl}methyl)azetidin-1-yl]-2,3-dihydro-1H-isoindole-1,3-dione]
< 5		50 to 500	35 to 70	C (C ≤ 35)	Cn1cnnc1C[C@]1(c2cccc(N3Cc4c(cc(CN5CCN(C[C@H]6CC[C@H](OC7CCN(c8ccc9c(n8)n(C)c(=O)n9C8CCC(=O)NC8=O)CC7)CC6)CC5(C)C)cc4C(F)(F)F)C3=O)c2)C[C@H](C#N)C1 (stereo partly shown) [Example 300, (1r,3r)-3-(3-{6-[(2,2-dimethyl-4-{[(1r,4r)-4-({1-[1-(2,6-dioxopiperidin-3-yl)-3-methyl-2-oxo-1H,2H,3H-imidazo[4,5-b]pyridin-5-yl]piperidin-4-yl}oxy)cyclohexyl]methyl}piperazin-1-yl)methyl]-1-oxo-4-(trifluoromethyl)-2,3-dihydro-1H-isoindol-2-yl}phenyl)-3-[(4-methyl-4H-1,2,4-triazol-3-yl)methyl]cyclobutane-1-carbonitrile]
< 5	> 70	< 5	> 70		Cn1cnnc1CC1(c2cccc(-n3cc4c(C(F)(F)F)cc(CN5CCC[C@H](CN6CCN(C[C@H]7CC[C@@H](OC8CCN(c9ccc%10c(c9F)CN(C9CCC(=O)NC9=O)C%10=O)CC8)CC7)CC6)C5)cc4n3)c2)COC1 (stereo partly drawn) [Example 221, 3-[4-fluoro-1-oxo-5-(4-{[(1r,4r)-4-[(4-{[(3S)-1-{[2-(3-{3-[(4-methyl-4H-1,2,4-triazol-3-yl)methyl]oxetan-3-yl}phenyl)-4-(trifluoromethyl)-2H-indazol-6-yl]methyl}piperidin-3-yl]methyl}piperazin-1-yl)methyl]cyclohexyl]oxy}piperidin-1-yl)-2,3-dihydro-1H-isoindol-2-yl]piperidine-2,6-dione]
50 to 500		5 to 50	< 35		Cc1cc(N2CCC(O[C@H]3CC[C@H](CN4CCN(Cc5cc(C(F)(F)F)c6cn(-c7cccc(C8(Cc9nncn9C)CC(C#N)C8)c7)nc6c5)C(C)(C)C4)CC3)CC2)c(F)c2c1C(=O)N(C1CCC(=O)NC1=O)C2 (stereo partly shown) [Example 292, (1r**,3r**)-3-(3-{6-[(2,2-dimethyl-4-{[(1r*,4r*)-4-({1-[2-(2,6-dioxopiperidin-3-yl)-4-fluoro-7-methyl-1-oxo-2,3-dihydro-1H-isoindol-5-yl]piperidin-4-yl}oxy)cyclohexyl]methyl}piperazin-1-yl)methyl]-4-(trifluoromethyl)-2H-indazol-2-yl}phenyl)-3-[(4-methyl-4H-1,2,4-triazol-3-yl)methyl]cyclobutane-1-carbonitrile]
5 to 50	35 to 70	5 to 50	35 to 70		Cn1cnnc1C[C@]1(c2cccc(N3Cc4c(cc(N5CC6(CCN(CC7CCN(c8ccc9c(c8)C(=O)N(C8CCC(=O)NC8=O)C9=O)CC7)CC6)C5)cc4C(F)(F)F)C3=O)c2)C[C@H](C#N)C1 (stereo partly shown) [Example 136, (1r,3r)-3-(3-{6-[7-({1-[2-(2,6-dioxopiperidin-3-yl)-1,3-dioxo-2,3-dihydro-1H-isoindol-5-yl]piperidin-4-yl}methyl)-2,7-diazaspiro[3.5]nonan-2-yl]-1-oxo-4-(trifluoromethyl)-2,3-dihydro-1H-isoindol-2-yl}phenyl)-3-[(4-methyl-4H-1,2,4-triazol-3-yl)methyl]cyclobutane-1-carbonitrile]
< 5		5 to 50	35 to 70	C (C ≤ 35)	Cn1cnnc1C[C@]1(c2cccc(N3Cc4c(cc(CN5CCN(C[C@H]6CC[C@H](OC7CCN(c8cccc9c8n(C(F)F)c(=O)n9C8CCC(=O)NC8=O)CC7)CC6)CC5(C)C)cc4C(F)(F)F)C3=O)c2)C[C@H](C#N)C1 (stereo partly shown) [Example 324, (1r,3r)-3-(3-{6-[(2,2-dimethyl-4-{[(1r,4r)-4-({1-[3-(difluoromethyl)-1-(2,6-dioxopiperidin-3-yl)-2-oxo-2,3-dihydro-1H-1,3-benzodiazol-4-yl]piperidin-4-yl}oxy)cyclohexyl]methyl}piperazin-1-yl)methyl]-1-oxo-4-(trifluoromethyl)-2,3-dihydro-1H-isoindol-2-yl}phenyl)-3-[(4-methyl-4H-1,2,4-triazol-3-yl)methyl]cyclobutane-1-carbonitrile]
